Read-outs that look alike come from different tables or passages of the source.
What was measured:
YES = biological target: T1, YES (Homo sapiens, UniProt P07947); experiment: KINOMEscan ScanTK; assay type: binding
T1 construct: purchased Eurofins DiscoverX KINOMEscan (scanTK)

FLT3(N841I) = biological target: T2, FLT3(N841I) (Homo sapiens, UniProt P36888, N841I); experiment: KINOMEscan ScanTK; assay type: binding
T2 construct: purchased Eurofins DiscoverX KINOMEscan (scanTK)
T2 sequence (P36888 27-993 N841I): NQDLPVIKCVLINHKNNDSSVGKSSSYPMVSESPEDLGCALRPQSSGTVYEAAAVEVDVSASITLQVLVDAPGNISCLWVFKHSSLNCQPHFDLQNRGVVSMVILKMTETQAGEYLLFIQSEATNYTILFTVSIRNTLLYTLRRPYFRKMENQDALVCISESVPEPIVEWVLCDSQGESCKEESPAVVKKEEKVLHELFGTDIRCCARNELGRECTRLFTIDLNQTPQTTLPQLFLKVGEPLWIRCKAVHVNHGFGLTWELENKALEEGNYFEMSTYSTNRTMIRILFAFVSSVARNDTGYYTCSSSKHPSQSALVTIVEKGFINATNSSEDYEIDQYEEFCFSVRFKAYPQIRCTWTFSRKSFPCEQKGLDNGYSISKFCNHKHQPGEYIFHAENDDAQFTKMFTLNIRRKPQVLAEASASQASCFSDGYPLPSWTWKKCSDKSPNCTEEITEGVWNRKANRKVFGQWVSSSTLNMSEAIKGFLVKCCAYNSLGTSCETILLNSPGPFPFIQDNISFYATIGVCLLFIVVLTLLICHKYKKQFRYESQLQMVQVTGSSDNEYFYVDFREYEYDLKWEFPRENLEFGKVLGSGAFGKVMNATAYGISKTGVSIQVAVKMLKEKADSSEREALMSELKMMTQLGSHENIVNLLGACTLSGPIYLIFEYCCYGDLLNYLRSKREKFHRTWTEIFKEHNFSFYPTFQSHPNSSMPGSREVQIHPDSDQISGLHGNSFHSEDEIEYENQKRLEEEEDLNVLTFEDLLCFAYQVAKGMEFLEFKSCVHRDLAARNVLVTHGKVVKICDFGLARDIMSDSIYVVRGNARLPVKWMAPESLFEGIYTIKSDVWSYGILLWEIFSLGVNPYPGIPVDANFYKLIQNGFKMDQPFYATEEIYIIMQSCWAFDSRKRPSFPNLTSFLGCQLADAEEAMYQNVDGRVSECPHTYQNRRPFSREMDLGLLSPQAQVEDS

IGF1R = biological target: T3, IGF1R (Homo sapiens, UniProt P08069); experiment: KINOMEscan ScanTK; assay type: binding
T3 construct: purchased Eurofins DiscoverX KINOMEscan (scanTK)
T3 sequence (P08069 31-1367): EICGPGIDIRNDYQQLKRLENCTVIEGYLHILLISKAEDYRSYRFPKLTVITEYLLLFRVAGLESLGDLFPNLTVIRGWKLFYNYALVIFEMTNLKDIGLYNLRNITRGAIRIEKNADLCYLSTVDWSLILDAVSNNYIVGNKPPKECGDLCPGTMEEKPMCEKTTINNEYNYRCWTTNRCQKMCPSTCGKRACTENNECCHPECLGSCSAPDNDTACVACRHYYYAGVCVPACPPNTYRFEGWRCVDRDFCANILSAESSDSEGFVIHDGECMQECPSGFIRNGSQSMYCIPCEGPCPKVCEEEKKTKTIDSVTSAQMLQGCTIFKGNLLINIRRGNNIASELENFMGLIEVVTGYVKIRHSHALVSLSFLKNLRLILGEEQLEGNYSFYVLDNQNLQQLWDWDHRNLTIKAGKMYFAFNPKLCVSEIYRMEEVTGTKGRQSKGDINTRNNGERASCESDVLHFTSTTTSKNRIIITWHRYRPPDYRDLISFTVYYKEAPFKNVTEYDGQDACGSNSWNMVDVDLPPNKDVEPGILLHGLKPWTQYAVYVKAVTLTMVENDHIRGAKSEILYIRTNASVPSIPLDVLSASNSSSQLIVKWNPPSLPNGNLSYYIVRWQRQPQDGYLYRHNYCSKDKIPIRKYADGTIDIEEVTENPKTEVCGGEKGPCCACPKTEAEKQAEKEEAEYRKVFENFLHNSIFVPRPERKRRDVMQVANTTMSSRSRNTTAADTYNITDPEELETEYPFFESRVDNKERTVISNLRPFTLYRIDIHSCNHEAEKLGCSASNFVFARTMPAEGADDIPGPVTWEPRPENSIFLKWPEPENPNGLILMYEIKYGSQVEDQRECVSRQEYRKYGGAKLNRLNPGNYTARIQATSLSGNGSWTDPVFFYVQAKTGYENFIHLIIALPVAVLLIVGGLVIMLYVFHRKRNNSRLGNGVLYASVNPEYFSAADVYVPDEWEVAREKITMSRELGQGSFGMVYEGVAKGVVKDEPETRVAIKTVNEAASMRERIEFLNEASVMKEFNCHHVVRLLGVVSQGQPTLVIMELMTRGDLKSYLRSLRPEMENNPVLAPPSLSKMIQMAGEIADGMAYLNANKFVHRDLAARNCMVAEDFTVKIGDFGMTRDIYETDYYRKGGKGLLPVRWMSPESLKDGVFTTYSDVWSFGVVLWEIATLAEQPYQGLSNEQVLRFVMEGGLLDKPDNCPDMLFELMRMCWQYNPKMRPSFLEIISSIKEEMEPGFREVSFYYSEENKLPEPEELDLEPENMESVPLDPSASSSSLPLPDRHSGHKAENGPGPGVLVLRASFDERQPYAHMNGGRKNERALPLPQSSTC

BTK, full length (2–659) = BTK, full length (2–659) (Homo sapiens, UniProt Q06187); experiment: PhosphoSens enzymatic IC50 (AssayQuant); assay type: biochemical; conditions: for IC50: 1 nM BTK, 1.0 mM ATP
Chain of BTK, full length (2–659) (Q06187 2-659): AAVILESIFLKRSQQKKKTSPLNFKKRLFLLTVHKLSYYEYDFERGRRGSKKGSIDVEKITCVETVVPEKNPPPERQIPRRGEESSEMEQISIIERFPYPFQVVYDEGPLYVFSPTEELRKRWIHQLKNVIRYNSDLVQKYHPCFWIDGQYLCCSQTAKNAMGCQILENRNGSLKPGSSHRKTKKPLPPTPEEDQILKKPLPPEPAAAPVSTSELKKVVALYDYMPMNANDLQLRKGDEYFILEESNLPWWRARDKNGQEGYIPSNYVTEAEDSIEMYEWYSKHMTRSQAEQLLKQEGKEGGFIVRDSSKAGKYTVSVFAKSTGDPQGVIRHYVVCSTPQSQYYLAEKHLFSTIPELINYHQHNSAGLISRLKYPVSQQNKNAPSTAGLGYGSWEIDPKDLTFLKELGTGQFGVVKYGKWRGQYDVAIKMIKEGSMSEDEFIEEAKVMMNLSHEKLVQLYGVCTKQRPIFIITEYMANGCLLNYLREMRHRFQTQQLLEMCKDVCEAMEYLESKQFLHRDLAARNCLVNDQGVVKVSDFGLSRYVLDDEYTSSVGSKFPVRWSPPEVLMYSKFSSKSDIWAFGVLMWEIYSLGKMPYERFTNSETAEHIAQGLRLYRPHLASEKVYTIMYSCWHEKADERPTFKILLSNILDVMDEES
Description: (§1) Biochemical enzymatic IC50 data were generated by AssayQuant Technologies (Marlborough, MA) using the PhosphoSens Platform. […] Reaction rate versus log [inhibitor concentration] data were fitted to the four-parameter logistic equation [drawing 1]

[1] = biological target: T4, EGFR, cytoplasmic domain (669–1210) (Homo sapiens, UniProt P00533); experiment: PhosphoSens enzymatic IC50 (AssayQuant); assay type: biochemical; conditions: no preincubation
T4 construct: GST (N); purchased Carna Biosciences
Description: as §1

ERBB4 = biological target: T5, ERBB4 (Homo sapiens, UniProt Q15303); experiment: KINOMEscan ScanTK; assay type: binding
T5 construct: purchased Eurofins DiscoverX KINOMEscan (scanTK)
T5 sequence (Q15303 26-1308): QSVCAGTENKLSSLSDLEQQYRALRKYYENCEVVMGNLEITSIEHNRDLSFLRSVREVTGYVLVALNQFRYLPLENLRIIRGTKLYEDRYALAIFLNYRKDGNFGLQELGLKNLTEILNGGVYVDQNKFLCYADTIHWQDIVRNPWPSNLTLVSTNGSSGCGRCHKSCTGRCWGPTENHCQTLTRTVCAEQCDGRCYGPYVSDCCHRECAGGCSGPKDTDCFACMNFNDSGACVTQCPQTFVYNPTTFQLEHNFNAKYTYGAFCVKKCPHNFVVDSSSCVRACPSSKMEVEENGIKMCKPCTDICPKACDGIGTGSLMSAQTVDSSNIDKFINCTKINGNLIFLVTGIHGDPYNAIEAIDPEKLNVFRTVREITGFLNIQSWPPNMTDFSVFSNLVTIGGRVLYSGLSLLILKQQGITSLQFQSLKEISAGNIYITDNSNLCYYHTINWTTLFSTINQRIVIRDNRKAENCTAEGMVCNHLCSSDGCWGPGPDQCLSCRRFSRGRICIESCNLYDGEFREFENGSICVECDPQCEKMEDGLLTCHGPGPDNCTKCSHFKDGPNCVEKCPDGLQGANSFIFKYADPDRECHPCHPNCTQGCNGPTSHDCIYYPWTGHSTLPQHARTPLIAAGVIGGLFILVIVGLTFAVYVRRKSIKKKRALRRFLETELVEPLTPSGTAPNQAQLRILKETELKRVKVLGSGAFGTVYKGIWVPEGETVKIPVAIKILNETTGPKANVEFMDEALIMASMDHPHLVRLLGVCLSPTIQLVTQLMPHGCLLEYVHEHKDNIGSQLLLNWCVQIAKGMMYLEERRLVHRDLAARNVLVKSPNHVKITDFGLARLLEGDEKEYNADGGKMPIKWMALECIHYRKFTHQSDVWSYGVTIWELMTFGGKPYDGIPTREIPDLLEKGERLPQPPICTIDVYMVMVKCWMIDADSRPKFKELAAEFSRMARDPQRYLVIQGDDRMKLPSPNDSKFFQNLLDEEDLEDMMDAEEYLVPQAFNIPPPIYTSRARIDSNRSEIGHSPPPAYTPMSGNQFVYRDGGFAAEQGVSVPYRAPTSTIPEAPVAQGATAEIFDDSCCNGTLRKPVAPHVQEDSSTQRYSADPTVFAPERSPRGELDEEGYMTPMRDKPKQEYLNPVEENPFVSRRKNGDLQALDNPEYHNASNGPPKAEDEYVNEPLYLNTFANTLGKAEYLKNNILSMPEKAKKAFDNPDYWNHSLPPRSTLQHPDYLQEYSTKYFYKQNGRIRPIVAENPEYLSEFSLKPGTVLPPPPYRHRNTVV

[2] = biological target: T6, ABL1(Q252H)-phosphorylated (Homo sapiens, UniProt P00519, Q252H); experiment: KINOMEscan ScanTK; assay type: binding
T6 construct: purchased Eurofins DiscoverX KINOMEscan (scanTK)

FLT4 = biological target: T7, FLT4 (Homo sapiens, UniProt P35916); experiment: KINOMEscan ScanTK; assay type: binding
T7 construct: purchased Eurofins DiscoverX KINOMEscan (scanTK)
T7 sequence (P35916 25-1363): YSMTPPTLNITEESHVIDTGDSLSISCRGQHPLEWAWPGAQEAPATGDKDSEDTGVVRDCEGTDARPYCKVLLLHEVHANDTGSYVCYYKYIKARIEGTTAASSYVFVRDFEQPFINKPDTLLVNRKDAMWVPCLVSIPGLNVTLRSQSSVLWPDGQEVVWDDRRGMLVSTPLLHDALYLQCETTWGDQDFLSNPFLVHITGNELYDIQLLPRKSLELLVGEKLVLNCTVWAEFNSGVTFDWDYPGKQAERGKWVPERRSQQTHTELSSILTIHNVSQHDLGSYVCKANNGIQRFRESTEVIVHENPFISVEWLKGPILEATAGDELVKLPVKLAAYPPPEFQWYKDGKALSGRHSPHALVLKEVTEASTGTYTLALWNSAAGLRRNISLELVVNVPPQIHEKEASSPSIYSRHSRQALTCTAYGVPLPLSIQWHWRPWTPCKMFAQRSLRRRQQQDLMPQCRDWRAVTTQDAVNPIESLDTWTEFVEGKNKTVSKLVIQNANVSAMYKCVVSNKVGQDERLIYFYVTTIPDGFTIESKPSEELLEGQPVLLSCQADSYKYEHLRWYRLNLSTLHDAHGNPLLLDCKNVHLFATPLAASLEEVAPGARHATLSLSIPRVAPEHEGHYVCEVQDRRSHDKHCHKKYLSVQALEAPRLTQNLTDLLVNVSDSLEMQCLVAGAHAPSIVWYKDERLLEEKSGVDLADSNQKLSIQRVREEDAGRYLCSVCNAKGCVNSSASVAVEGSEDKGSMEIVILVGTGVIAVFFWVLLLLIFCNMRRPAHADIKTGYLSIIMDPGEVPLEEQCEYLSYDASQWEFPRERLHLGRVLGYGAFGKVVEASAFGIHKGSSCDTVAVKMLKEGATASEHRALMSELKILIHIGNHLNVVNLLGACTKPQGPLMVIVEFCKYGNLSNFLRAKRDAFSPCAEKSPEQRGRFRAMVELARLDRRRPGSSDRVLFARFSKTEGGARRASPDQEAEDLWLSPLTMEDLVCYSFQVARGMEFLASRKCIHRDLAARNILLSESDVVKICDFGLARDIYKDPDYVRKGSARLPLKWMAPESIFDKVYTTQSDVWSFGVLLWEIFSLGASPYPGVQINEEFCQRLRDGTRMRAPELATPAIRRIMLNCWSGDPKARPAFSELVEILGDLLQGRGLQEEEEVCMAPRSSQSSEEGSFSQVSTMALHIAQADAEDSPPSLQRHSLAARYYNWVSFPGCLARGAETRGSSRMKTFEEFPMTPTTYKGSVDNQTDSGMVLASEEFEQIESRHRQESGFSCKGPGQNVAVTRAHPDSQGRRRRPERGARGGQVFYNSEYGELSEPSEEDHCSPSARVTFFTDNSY

EPHA7 = biological target: T8, EPHA7 (Homo sapiens, UniProt Q15375); experiment: KINOMEscan ScanTK; assay type: binding
T8 construct: purchased Eurofins DiscoverX KINOMEscan (scanTK)

RET = biological target: T9, RET (Homo sapiens, UniProt P07949); experiment: KINOMEscan ScanTK; assay type: binding
T9 construct: purchased Eurofins DiscoverX KINOMEscan (scanTK)

ZAP70 = biological target: T10, ZAP70 (Homo sapiens, UniProt P43403); experiment: KINOMEscan ScanTK; assay type: binding
T10 construct: purchased Eurofins DiscoverX KINOMEscan (scanTK)
T10 sequence (P43403 1-619): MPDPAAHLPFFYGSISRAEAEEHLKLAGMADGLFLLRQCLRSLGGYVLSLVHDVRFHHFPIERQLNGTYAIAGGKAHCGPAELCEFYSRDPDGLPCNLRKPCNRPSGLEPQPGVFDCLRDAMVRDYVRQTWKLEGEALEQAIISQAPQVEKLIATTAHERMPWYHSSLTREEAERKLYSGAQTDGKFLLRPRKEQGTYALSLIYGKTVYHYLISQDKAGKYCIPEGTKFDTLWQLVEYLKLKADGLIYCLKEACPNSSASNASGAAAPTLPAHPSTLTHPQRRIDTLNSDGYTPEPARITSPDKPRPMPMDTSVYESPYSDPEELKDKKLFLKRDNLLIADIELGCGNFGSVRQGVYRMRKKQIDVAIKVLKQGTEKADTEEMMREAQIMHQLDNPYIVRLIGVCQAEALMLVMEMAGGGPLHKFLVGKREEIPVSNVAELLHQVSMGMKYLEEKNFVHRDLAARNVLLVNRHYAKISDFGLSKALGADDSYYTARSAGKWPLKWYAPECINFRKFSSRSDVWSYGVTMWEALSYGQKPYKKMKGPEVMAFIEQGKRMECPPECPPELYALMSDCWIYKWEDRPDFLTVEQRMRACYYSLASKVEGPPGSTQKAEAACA

LYN = biological target: T11, LYN (Homo sapiens, UniProt P07948); experiment: KINOMEscan ScanTK; assay type: binding
T11 construct: purchased Eurofins DiscoverX KINOMEscan (scanTK)
T11 sequence (P07948 whole entry): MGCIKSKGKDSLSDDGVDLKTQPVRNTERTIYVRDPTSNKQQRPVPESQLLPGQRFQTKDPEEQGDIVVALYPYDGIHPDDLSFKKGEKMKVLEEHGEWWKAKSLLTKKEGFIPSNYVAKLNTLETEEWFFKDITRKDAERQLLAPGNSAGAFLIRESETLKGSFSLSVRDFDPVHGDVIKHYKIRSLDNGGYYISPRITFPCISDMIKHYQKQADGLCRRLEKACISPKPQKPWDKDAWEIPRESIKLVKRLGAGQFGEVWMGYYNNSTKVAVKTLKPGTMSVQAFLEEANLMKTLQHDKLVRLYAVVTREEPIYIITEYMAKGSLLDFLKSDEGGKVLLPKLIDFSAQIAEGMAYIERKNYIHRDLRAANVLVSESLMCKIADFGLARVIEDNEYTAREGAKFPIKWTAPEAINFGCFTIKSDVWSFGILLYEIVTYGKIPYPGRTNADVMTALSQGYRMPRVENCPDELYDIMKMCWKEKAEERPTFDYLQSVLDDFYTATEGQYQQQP

For CNC(=O)c1cnc(S(C)(=O)=O)nc1N1CCCC(n2nc(-c3ccc(Oc4ccccc4)cc3)c3c(N)ncnc32)C1 (stereo not shown) [Compound 8d, 4-(3-(4-Amino-3-(4-phenoxyphenyl)-1H-pyrazolo[3,4-d]pyrimidin-1-yl)piperidin-1-yl)-N-methyl-2-(methylsulfonyl)pyrimidine-5-carboxamide], which remaining binding at 1 µM (YES; @1000nM, read-out: %Control) is on record?
Its remaining binding at 1 µM is 11%.

What about the remaining binding at 1 µM (YES; read-out: %Control @1000nM) of the same compound?
The remaining binding at 1 µM was 11%.

And the difference in %Control versus compound Ib at 1 µM (FLT3(N841I); @1000nM)?
Its difference in %Control versus compound Ib at 1 µM is 37%.

And the remaining binding at 1 µM (FLT3(N841I); @1000nM, read-out: %Control)?
The remaining binding at 1 µM was 56%.

What about the remaining binding at 1 µM (FLT3(N841I); read-out: %Control @1000nM) of the same compound?
The remaining binding at 1 µM was 56%.

And the % Control difference from reference compound Ib at 1 µM (IGF1R; @1000nM)?
Its % Control difference from reference compound Ib at 1 µM is 4%.

And the remaining binding at 1 µM (IGF1R; @1000nM, read-out: %Control)?
The remaining binding at 1 µM was 100%.

And the remaining binding at 1 µM (IGF1R; read-out: %Control @1000nM)?
The remaining binding at 1 µM was 100%.

And the IC50 (BTK, full length (2–659); 0 min preincubation IC50 (nM), 0 min preincubation)?
Its IC50 is 3.6 nM.

What about the IC50 (BTK, full length (2–659); 60 min preincubation IC50 (nM), 60 min preincubation) of the same compound?
The IC50 was 1.2 nM.

And the “fold change, 1 nM BTK” value (BTK, full length (2–659); IC50 0 min vs 60 min preincubation)?
The value was 3.1.

What about the “0 min IC50 (nM), 3 nM EGFR” value [1] of the same compound?
Its value is “none of the compounds, 8a, 8b, or 8d, exhibited measurable inhibition”.

And the IC50 [1]?
The IC50 was > 1000 nM.

What about the difference in %Control versus compound Ib at 1 µM (ERBB4; @1000nM) of the same compound?
The difference in %Control versus compound Ib at 1 µM was 0.05%.

What about the remaining binding at 1 µM (ERBB4; @1000nM, read-out: %Control) of the same compound?
Its remaining binding at 1 µM is 0.1%.

What about the remaining binding at 1 µM (ERBB4; read-out: %Control @1000nM) of the same compound?
The remaining binding at 1 µM was 0.1%.

And the difference in %Control versus reference Ib at 1 µM ([2]; @1000nM, read-out: % difference (compound - Ib %Control))?
Its difference in %Control versus reference Ib at 1 µM is -1%.

And the remaining binding at 1 µM ([2]; @1000nM, read-out: %Control)?
The remaining binding at 1 µM was 93%.

And the remaining binding at 1 µM ([2]; read-out: %Control @1000nM)?
The remaining binding at 1 µM was 93%.

And the difference in %Control from compound Ib at 1 µM (FLT4; @1000nM)?
The difference in %Control from compound Ib at 1 µM was 67%.

What about the remaining binding at 1 µM (FLT4; @1000nM, read-out: %Control) of the same compound?
The remaining binding at 1 µM was 94%.

What about the remaining binding at 1 µM (FLT4; read-out: %Control @1000nM) of the same compound?
Its remaining binding at 1 µM is 94%.

And the difference in %Control versus compound Ib at 1 µM (EPHA7; @1000nM)?
Its difference in %Control versus compound Ib at 1 µM is 4%.

What about the remaining binding at 1 µM (EPHA7; @1000nM, read-out: %Control) of the same compound?
The remaining binding at 1 µM was 99%.

And the remaining binding at 1 µM (EPHA7; read-out: %Control @1000nM)?
The remaining binding at 1 µM was 99%.

What about the remaining binding at 1 µM (RET; @1000nM, read-out: %Control) of the same compound?
Its remaining binding at 1 µM is 31%.

And the remaining binding at 1 µM (RET; read-out: %Control @1000nM)?
Its remaining binding at 1 µM is 31%.

And the remaining binding at 1 µM (ZAP70; @1000nM, read-out: %Control)?
Its remaining binding at 1 µM is 100%.

And the remaining binding at 1 µM (ZAP70; read-out: %Control @1000nM)?
Its remaining binding at 1 µM is 100%.

And the remaining binding at 1 µM (LYN; @1000nM, read-out: %Control)?
Its remaining binding at 1 µM is 43%.

What about the remaining binding at 1 µM (LYN; read-out: %Control @1000nM) of the same compound?
Its remaining binding at 1 µM is 43%.
